Assay [1] has as its system IL-6. Description: TPA-induced IL-6 production in keratinocytes (ELISA). It counts as cell-based, human. The settings on record: Homo sapiens, Keratinocyte, read-out: Percent Inhibition of IL-6. For orientation: In an ELISA, binding on a coated surface is turned into a signal by an enzyme label.
Assay [2] relates to IL-8. As to the kind of experiment: TPA-induced IL-8 production in keratinocytes (ELISA). It counts as cell-based, human. The settings on record: Homo sapiens, Keratinocyte, read-out: Percent Inhibition of IL-8.
For another assay, the system named is TNF-α. Description: UV-induced TNF-α production in keratinocytes (ELISA). As to conditions: Homo sapiens, Keratinocyte, read-out: Percent Inhibition of TNF-α. In kind it is cell-based, human. The method, then:
(§1) In one study, various concentrations of DHE were added to culture medium and these media were placed on human fibroblast cell cultures (results shown in FIG. 1). Cells were either not induced or induced with UVB radiation to stimulate cytokine/PGE-2 production. At 24 hours after treatment, the cell culture medium was removed and assayed by ELISA methods for the expression of PGE-2, various cytokines and chemokines.
When similar experiments were carried out with human keratinocytes, DHE was again found to markedly suppress the UVR induction of PGE-2, with a concentration of 50 uM inhibiting the production of PGE-2 by over 60% (results shown in FIG. 2). […] Further, since PGE-2 is known to be a principal factor in the development of actinic keratosis and skin cancer, DHE can also be used in treating these conditions.
DHE and IE both have inhibitory effects on production of the inflammatory mediators in keratinocytes.

In assay [3] the test system is IL-8. As to the kind of experiment: IL-1-induced IL-8 production in fibroblasts (ELISA). It counts as cell-based, human. The settings on record: Homo sapiens, Fibroblast, Fibroblasts (IL-1), read-out: Percent Inhibition of IL-8.
Another assay has as its system PGE-2. Description: UV-induced PGE-2 production in fibroblasts (ELISA). In kind it is cell-based, human. As to conditions: Homo sapiens, Fibroblast; Fibroblasts (UV); 100 uM; read-out: Percent Inhibition of PGE-2. The method, then:
as §1
As is shown in FIG. 1, UV radiation (UVR) treatment of fibroblasts results in a 6 fold increase in PGE-2.
(§2) DHE and IE both have inhibitory effects on the production of the inflammatory mediators in fibroblasts.

In assay [4] the test system is IL-6. As to the kind of experiment: UV-induced IL-6 production in fibroblasts (ELISA). It counts as cell-based, human. The settings on record: Homo sapiens, Fibroblast, read-out: Percent Inhibition of IL-6. The method, then: as §1, §2
In another assay the test system is IL-12. As to the kind of experiment: LPS-induced IL-12 production in monocytes. In kind it is cell-based. As to conditions: Monocyte, read-out: Percent Inhibition of IL-12. From the text: (§3) DHE and IE both have inhibitory effects on the production of the inflammatory mediators in monocytes.
For assay [5], the system named is IL-8. Description: LPS-induced IL-8 production in monocytes. In kind it is cell-based. As to conditions: Monocyte; Monocytes (LPS); 100 uM; read-out: Percent Inhibition of IL-8.
Excerpt: as §3

In another assay the test system is MCP-1. As to the kind of experiment: TNF-α-induced MCP-1 production in monocytes. It counts as cell-based. The settings on record: Monocyte, read-out: Percent Inhibition of MCP-1.
Excerpt: as §3

Another assay relates to elastin mRNA. As to the kind of experiment: Elastin mRNA in human dermal fibroblasts by RT-PCR. The settings on record: 72 hours. In kind it is cell-based. From the text:
The presently claimed and disclosed inventive concept(s) further contemplates use of various DHE, IE and EV compositions and salts, esters, ethers, and derivatives thereof to mitigate the effects of aging on the skin. For all aging studies, normal human fibroblast cell cultures were used. These cells normally produce collagen, elastin and hyaluronic acid. As the skin ages, the fibroblasts in the dermis lose their ability to produce these three key components of skin, and the skin consequently loses elasticity, thickness and smooth texture. […] There are about 13 of these enzymes, collectively referred to as MMPs (matrix metalloproteinases). One of the principal MMPs, MMP-1, is responsible for collagen degradation. […] The image is from an electrophoresis gel of DNA amplified by PCR from fibroblast mRNA. This gel was analyzed and the density of each band quantified by image analysis software.

Assay [6] deals with tyrosinase. As to the kind of experiment: Melanin synthesis in vitro from L-DOPA catalyzed by tyrosinase (test tube). It counts as biochemical. On the procedure:
Two ml of a sodium phosphate buffer, pH 6.8 containing 0.2% L-DOPA (dihydroxyphenylalanine—a tyrosinase substrate) were placed in each of two test tubes. To one test tube was added 20 microliters of ethanol and to the other tube was added 20 microliters of a 1M stock of IE made up in ethanol (labeled TH-212). To start melanin synthesis from the L-DOPA substrate, 20 microliters of a tyrosinase preparation (0.5 mg/ml) was added to both tubes, the tubes were mixed and left at room temperature. The photograph in FIG. 13 was taken 2 hours after the start of the reaction.

Assay [7] concerns tyrosinase. Description: DOPA oxidase assay of cell extracts from treated human melanocytes. In kind it is cell-based. The settings on record: extracts of human melanocytes treated for 9 days. The method, then: Cell lysates were prepared from human melanocytes. The amount of tyrosinase in these cell lysates was determined by DOPA oxidase assay.
FIGS. 14-17 show the skin-lightening effects of topically-applied formulations of isoeugenol and its ester isoeugenol acetate (a.k.a. isoeugenyl acetate) in the treatment of hyperpigmented areas in the skin, wherein a reduction of melanin pigment in the skin is caused by the topical application of the formulations. In addition to blocking a post-tyrosinase step in melanin synthesis, IE and IE acetate can inhibit the expression of the tyrosinase protein in human melanocytes. […] If the cell extracts contain tyrosinase when an aliquot of extract is placed in a tube containing L-DOPA (a tyrosinase substrate) in buffer, the enzyme will convert the DOPA to melanin. The melanin will appear brownish-black in the assay tube. If IE or IE-acetate has inhibited tyrosinase synthesis in melanocytes, then the extracts from these cells will contain no enzyme and will not be able to produce melanin from DOPA in the assay tube. […] In this assay, cell extracts from human melanocytes either left untreated or treated with 200 micromolar of either IE or isoeugenol acetate for 9 days are run on SDS polyacrylamide electrophoresis gels to separate tyrosinase from other proteins. The tyrosinase in the gel is then blotted to a membrane and the tyrosinase detected by staining with a specific anti-tyrosinase antibody. The antibody-bound tyrosinase is then visualized by chemiluminescence.

By inhibition is commonly meant the change of the read-out against control, counted positive when it falls.

Turning to `CC=Cc1ccc(O)c(OC)c1` [IE, isoeugenol], the inhibition at 100 µM with IL-6 [1] came out at 94%; in the assay with IL-8 [2], 75%; with TNF-α, 60%; with IL-8 [3], 98%; with PGE-2 it was 77%; in the assay on IL-6 [4], 39%. Further, the inhibition at 100 µM was 80% with IL-12, 75% in the assay on IL-8 [5] and 82% in the assay on MCP-1. For the same molecule, the “elastin levels (elastin mRNA)” value with elastin mRNA is “increase”. Besides, in the assay with tyrosinase [6] (0.2% L-DOPA, pH 6.8, 20 microliters of 1M stock in 2 ml, tyrosinase, 2 hours, room temperature), the melanin synthesis entry was “almost completely blocked”. In the assay with tyrosinase [6] (tubes containing DOPA, IE and tyrosinase, even after 2 weeks), the “darkening of test tubes (melanin production)” value is “fail to darken”. Moreover, the “tyrosinase activity / melanin made from L-DOPA by cell extracts” value in the assay on tyrosinase [7] was “very little melanin was made”; in the assay on tyrosinase [7] (listed as TH-212), “absence of tyrosinase activity”.

(Values after patent US9616006B2, “Methods and compositions for treating dermatological diseases and conditions” (priority 2007, dated 2017).)
